Assay [1] concerns the target T1, Ras farnesyl transferase (Homo sapiens, UniProt P49354+P49356).
T1 construct: made in house
Description: Ras farnesyl transferase enzyme inhibition, H-Ras substrate. Format: biochemical. The following applies: H-Ras substrate protein; recombinant farnesyl transferase; 30 minutes at 37° C. An excerpt:
(§1) In the present experiment, the improved Pompliano's method (see: Pompliano et al., Biochemistry, 31, 3800, 1992) was applied. Specifically, Ras farnesyl transferase produced by genetic recombination techniques was used, and fused protein of H-Ras(H-Ras-CVLS) substituted with polybasic lysine domain at C-terminus of K-Ras (see: Korean Patent Appln. No. 97-14409) was used as a substrate after it had been purified according to the known method(see, Chung et al., Biochimica et Biophysica Acta, 1129, 278, 1992).
(§2) The enzyme reaction was performed in 50 μl of 50 mM Sodium HEPES buffer solution containing 25 mM of potassium chloride, 25 mM of magnesium chloride, 10 mM of DTT and 50 μM of zinc chloride. 1.5 μM of Ras substrate protein, 0.15 μM of tritium-farnesylpyrophosphate and 4.5 nM of farnesyl transferase were used. More specifically, in the initial step, farnesyl transferase was added to the above buffer solution, reaction was maintained for 30 minutes at 37° C. and then the reaction was stopped by adding 1 ml of ethanol solution containing 1M HCl. The formed precipitates were adsorbed to GF/B filter using Hopper harvestor(Hopper #FH 225V) for filter-binding, washed with ethanol, and then radioactivity of the dried filter was measured using LKB β counter. Enzyme titer was measured in the unsaturated state of substrate where the concentration of Ras substrate protein and farnesyl transferase have quantitative relationship. The compound according to the present invention dissolved in dimethyl sulfoxide(DMSO) was added to the reaction solution in an amount of less than 5% of the total reaction solution, and then the enzyme inhibitory activity thereof was measured. The enzyme inhibitory activity was represented by percentage of the amount of farnesyl incorporated into the Ras substrate protein in the presence of the test compound to that in the absence of the test compound. IC50 of the test compound was defined as the concentration at which 50% of the enzyme activity was inhibited. To evaluate the selective enzyme inhibitory activity of the compound according to the present invention, inhibitory activity on geranylgeranyl transferase was measured. Geranylgeranyl transferase was purified from bovine brain according to the modified Schaber's method(Schaber et al., J. Biol. Chem. 265, 14701, 1990), and substantially the same experimental procedure as that for farnesyl transferase was performed on geranylgeranyl pyrophosphate and Ras-CVIL substrate protein.

In assay [2] the target is T1, Ras farnesyl transferase. As to the kind of experiment: Ras farnesyl transferase enzyme inhibition, K-Ras substrate (H-Ras fused with polybasic lysine domain of K-Ras). Format: biochemical. The following applies: K-Ras substrate (fused protein of H-Ras with polybasic lysine domain of K-Ras); recombinant farnesyl transferase.
Description: as §1, §2

The target in assay [3] is T2, Ras farnesyl transferase (Rattus norvegicus, UniProt Q02293+Q04631).
T2 construct: endogenous in cells; host or cells: Rat2 fibroblasts transformed with C-Harvey-Ras or with the H-Ras/K-Ras polybasic-domain fusion
Description: In vivo (intracellular) Ras farnesylation inhibition in Rat2 cell line expressing C-Harvey-Ras. It counts as cell-based. To be noted: Rat2 cells expressing C-Harvey-Ras; concentration inhibiting 50% of farnesyl binding; read-out: H-Ras CIC50. The protocol:
(§3) In the present experiment, Rat2 cell line which expresses C-Harvey-Ras protein having transforming activity and Rat2 cell line(Korean patent application No. 97-14409) which is transformed with fused protein of H-Ras substituted with polybasic lysine domain at C-terminus of K-Ras were used. The experiment was performed by the modified Declue's method(Declue. J. E. et al., Cancer Research, 51, 712, 1991) as follows.
(§4) 3×10^5 cells of transformed Rat2 fibroblast cell line were sprayed on 60 mm cell cultivation dish and cultivated for 48 hours in a cell incubator at 37° C. and after 50% or more of density was reached, it was treated with the test compounds. The compound according to the present invention dissolved in dimethylsulfoxide(DMSO) was used. 1% concentration of dimethylsulfoxide was used in both control and test groups. After 4 hours from the treatment with the compound, methionine labeled with 150 μCi of radioactive isotope [^35S] per 1 ml of medium was added and after cultivating for 20 hours, the cells were washed with physiological saline water. The cells were lysed using 1 ml of cold cell lysis buffer solution(50 mM of Sodium HEPES buffer solution containing 5 mM of magnesium chloride, 1 mM of DTT, 1% NP 40, 1 mM of EDTA, 1 mM of PMSF, 2 μM of leupeptin, 2 μM of pepstatin A and 2 μM of antipain) and the supernatant wherein the cells were lysed was obtained by high-velocity centrifugation of 12,000 g×5 minutes. The amount of radioisotope in the supernatant was measured and standardized to obtain a quantitative result in immunoprecipitation reaction and then, Y13-259, a monoclonal antiboby specifically binding to Ras protein(see: Furth, M. E. et al., J. Virol, 43, 294, 1982) was added and reacted for 15 hours at 4° C. Protein A(combined with goat anti-murine immunoglobulin antibody)-agarose suspension was added to the solution and reacted for 1 hour at 4° C. and then, to remove the unspecific binding product, immunoprecipitates were washed with a buffer solution (50 mM Tris chloride buffer solution containing 50 mM of sodium chloride, 0.5% of sodium dioxycholate, 0.5% of NP 40 and 0.1% of SDS). The precipitates were added to a buffer solution for electrophoresis and boiled and then, electrophoresis was performed using 13.5% of SDS polyacrylamide gel. After electrophoresis, the gel was fixed and dried. Then, the gel was exposed to X-ray film, developed and printed. From the result of the experiment, intensities of band of protein combined with or without farnesyl of Ras protein was measured, and the concentration of the test compound inhibiting 50% of farnesyl binding was defined as CIC50, an in vivo Ras farnesyl transferase inhibitory activity. IC50 means the data from Experimental 1 and CIC50 means the data from Experimental 2.

For assay [4], the target named is T2, Ras farnesyl transferase. As to the kind of experiment: In vivo (intracellular) Ras farnesylation inhibition in Rat2 cell line transformed with H-Ras fused with polybasic lysine domain of K-Ras. Format: cell-based. The following applies: Rat2 cells transformed with H-Ras/K-Ras polybasic domain fused protein; concentration inhibiting 50% of farnesyl binding; read-out: K-Ras CIC50. The protocol:
as §3, §4

As to `CCOCCCn1c(Cn2cc(C(=O)N3CCN(C)CC3)c(-c3cccc4ccccc34)c2)cnc1C` [Example 27, 1-[1-(3-ethoxypropyl)-2-methyl-1H-imidazol-5-ylmethyl]-3-(4-methylpiperazin-1-yl)carbonyl-4-(naphthalen-1-yl)-1H-pyrrole], the IC50 was below 0.003 µM at Ras farnesyl transferase [1], above 0.02 µM on Ras farnesyl transferase [2], below 0.025 µM at Ras farnesyl transferase [3] and above 10 µM on Ras farnesyl transferase [4].

`CCOCCCn1cnc(C)c1Cn1cc(C(=O)N2CCN(C)CC2)c(-c2cccc3ccccc23)c1` [Example 28, 1-[1-(3-ethoxypropyl)-4-methyl-1H-imidazol-5-ylmethyl]-3-(4-methylpiperazin-1-yl)carbonyl-4-(naphthalen-1-yl)-1H-pyrrole]: the IC50 is below 0.0022 µM on Ras farnesyl transferase [1], below 0.0032 µM at Ras farnesyl transferase [2], below 0.00625 µM at Ras farnesyl transferase [3] and below 10 µM on Ras farnesyl transferase [4].

As for `Cc1ncn(CCCOCc2ccccc2)c1Cn1cc(C(=O)N2CCN(C)CC2)c(-c2cccc3ccccc23)c1` [Example 29, 1-[1-(3-benzyloxypropyl)-4-methyl-1H-imidazol-5-ylmethyl]-3-(4-methylpiperazin-1-yl)carbonyl-4-(naphthalen-1-yl)-1H-pyrrole], the IC50 on Ras farnesyl transferase [1] was below 0.00245 µM; at Ras farnesyl transferase [2] it was below 0.0027 µM; at Ras farnesyl transferase [3], below 0.00625 µM; at Ras farnesyl transferase [4] it was below 10 µM.

Turning to `COCCN(C)C(=O)c1cn(Cc2c(C)ncn2CCCOCc2ccccc2)cc1-c1cccc2ccccc12` [Example 30, 1-[1-(3-benzyloxypropyl)-4-methyl-1H-imidazol-5-ylmethyl]-3-[N-(2-methoxyethyl)-N-methyl]carbamoyl-4-(naphthalen-1-yl)-1H-pyrrole], the IC50 at Ras farnesyl transferase [1] was below 0.005 µM; on Ras farnesyl transferase [2] it was below 0.0021 µM; on Ras farnesyl transferase [3], below 0.0125 µM; at Ras farnesyl transferase [4], below 10 µM.

`Cc1ncn(CCCOCc2ccccc2Cl)c1Cn1cc(C(=O)N2CCN(C)CC2)c(-c2cccc3ccccc23)c1` [Example 31, 1-{1-[3-(2-chlorobenzyloxy)propyl]-4-methyl-1H-imidazol-5-ylmethyl}-3-(4-methylpiperazin-1-yl)carbonyl-4-(naphthalen-1-yl)-1H-pyrrole]: the IC50 on Ras farnesyl transferase [1] was below 0.0032 µM; on Ras farnesyl transferase [2], below 0.0021 µM; at Ras farnesyl transferase [3], below 0.00625 µM; at Ras farnesyl transferase [4], below 10 µM.

With `COCCN(C)C(=O)c1cn(Cc2c(C)ncn2CCCOCc2ccccc2Cl)cc1-c1cccc2ccccc12` [Example 32, 1-{1-[3-(2-chlorobenzyloxy)propyl]-4-methyl-1H-imidazol-5-ylmethyl}-3-[N-(2-methoxyethyl)-N-methyl]carbamoyl-4-(naphthalen-1-yl)-1H-pyrrole], the IC50 was below 0.006 µM on Ras farnesyl transferase [1], below 0.015 µM at Ras farnesyl transferase [2], below 0.00625 µM on Ras farnesyl transferase [3] and above 10 µM on Ras farnesyl transferase [4].

Regarding `Cc1ncc(Cn2cc(C(=O)N3CCN(C)CC3)c(-c3cccc4ccccc34)c2)n1CCCOCc1ccccc1` [Example 33, 1-[1-(3-benzyloxypropyl)-2-methyl-1H-imidazol-5-ylmethyl]-3-(4-methylpiperazin-1-yl)carbonyl-4-(naphthalen-1-yl)-1H-pyrrole], the IC50 at Ras farnesyl transferase [1] is above 0.03 µM; on Ras farnesyl transferase [2], above 0.03 µM; on Ras farnesyl transferase [3], above 0.03 µM; at Ras farnesyl transferase [4], above 10 µM.

On to `Cc1ncc(Cn2cc(C(=O)N3CCN(C)CC3)c(-c3cccc4ccccc34)c2)n1CCc1ccccc1` [Example 35, 1-[1-(phenethyl)-2-methyl-1H-imidazol-5-ylmethyl]-3-(4-methylpiperazin-1-yl)carbonyl-4-(naphthalen-1-yl)-1H-pyrrole], for which the IC50 on Ras farnesyl transferase [1] was below 0.0025 µM; on Ras farnesyl transferase [2], below 0.0059 µM; on Ras farnesyl transferase [3] it was below 0.0025 µM; at Ras farnesyl transferase [4] it was above 10 µM.

With `O=[N+]([O-])c1cn(Cc2cncn2Cc2ccc3c(c2)OCO3)cc1-c1cccc2ccccc12` [Example 36, 1-[1-(3,4-methylenedioxybenzyl)-1H-imidazol-5-ylmethyl]-4-(naphthalen-1-yl)-3-nitro-1H-pyrrole], the IC50 on Ras farnesyl transferase [1] was below 0.0055 µM; at Ras farnesyl transferase [2], below 0.0155 µM; at Ras farnesyl transferase [3], above 0.1 µM; on Ras farnesyl transferase [4] it was above 20 µM.

Consider `O=[N+]([O-])c1cn(Cc2cncn2Cc2ccc(Cl)cc2)cc1-c1cccc2ccccc12` [Example 37, 1-[1-(4-chlorobenzyl)-1H-imidazol-5-ylmethyl]-4-(naphthalen-1-yl)-3-nitro-1H-pyrrole], for which the IC50 on Ras farnesyl transferase [1] is below 0.0057 µM; at Ras farnesyl transferase [2], below 0.0095 µM; on Ras farnesyl transferase [3] it was above 0.025 µM; on Ras farnesyl transferase [4] it was above 10 µM.

For the molecule `O=[N+]([O-])c1cn(Cc2cncn2Cc2ccc(Br)cc2)cc1-c1cccc2ccccc12` [Example 38, 1-[1-(4-bromobenzyl)-1H-imidazol-5-ylmethyl]-4-(naphthalen-1-yl)-3-nitro-1H-pyrrole], the IC50 is below 0.023 µM at Ras farnesyl transferase [1], above 0.03 µM at Ras farnesyl transferase [2], above 0.025 µM on Ras farnesyl transferase [3] and above 10 µM at Ras farnesyl transferase [4].

With `O=[N+]([O-])c1cn(Cc2cncn2CCc2ccccc2)cc1-c1cccc2ccccc12` [Example 39, 1-[1-(phenethyl)-1H-imidazol-5-ylmethyl]-4-(naphthalen-1-yl)-3-nitro-1H-pyrrole], the IC50 was below 0.006 µM on Ras farnesyl transferase [1], below 0.0083 µM on Ras farnesyl transferase [2], below 0.025 µM on Ras farnesyl transferase [3] and above 10 µM at Ras farnesyl transferase [4].

Regarding `Cc1ccc(CCn2cncc2Cn2cc(-c3cccc4ccccc34)c([N+](=O)[O-])c2)cc1` [Example 40, 1-[1-(4-methylphenethyl)-1H-imidazol-5-ylmethyl]-4-(naphthalen-1-yl)-3-nitro-1H-pyrrole], the IC50 was below 0.024 µM on Ras farnesyl transferase [1], above 0.03 µM at Ras farnesyl transferase [2], above 0.05 µM at Ras farnesyl transferase [3] and above 10 µM on Ras farnesyl transferase [4].

Turning to `O=[N+]([O-])c1cn(Cc2cncn2CCc2ccc(Cl)cc2)cc1-c1cccc2ccccc12` [Example 41, 1-[1-(4-chlorophenethyl)-1H-imidazol-5-ylmethyl]-4-(naphthalen-1-yl)-3-nitro-1H-pyrrole], the IC50 is below 0.009 µM on Ras farnesyl transferase [1], below 0.004 µM at Ras farnesyl transferase [2], above 0.05 µM on Ras farnesyl transferase [3] and above 10 µM on Ras farnesyl transferase [4].
